These are literature values, as cited in patent US20080193567A1, “Pharmaceutical Canscora Diffusa-Containing Composition” (priority 2004, published 2008).

The conditions of data set [1]: interpreted as an effect against stress and anxiety.
The test system of data set [2] is Mycobacterium tuberculosis.
The conditions of data set [3]: animal experiments.

As for `COc1ccc([C@@H]2CCc3c(O[C@@H]4O[C@H](CO)[C@@H](O)[C@H](O)[C@H]4O)cc(O)cc3O2)cc1OC` [Diffutin], the adaptogenic effect entry in data set [1] is ““adaptogenic” effect”.

As for `COc1ccc([C@@H]2CCc3c(O[C@@H]4OC(CO)[C@@H](O)[C@H](O)C4O)cc(OC)cc3O2)cc1` (some centres unmarked) [dichotosin], the adaptogenic effect entry in data set [1] is ““adaptogenic” effect”.

For the compound `O=c1c2cc(O)c(O)cc2oc2cc(O)c([C@@H]3O[C@H](CO)[C@@H](O)[C@H](O)[C@H]3O)c(O)c12` [magniferin], the “effect against Mycobacterium tuberculosis” value in data set [2] was “small effect”. For the same compound, in data set [3], the spermicidal effect result is reported as “spermicidal effect”.

In the case of dichotosinin, in data set [1], the adaptogenic effect result is recorded as ““adaptogenic” effect”.
